{
  "source": "paper PMC3309614",
  "about": "(Journal of the American Chemical Society, 2011)",
  "origin": "cited, not measured here",
  "system": "kinesin-5 L214A",
  "conditions": "L214A mutation in allosteric binding site",
  "data": [
    {"substance": "S-Trityl-L-cyteine [STLC]", "values": [
      {"measurement": "effect of L214A mutation on inhibition", "value": "known to suppress STLC inhibition"}
    ]}
  ]
}
